Measured values reported in PubChem BioAssay AID1963967 (Molecular Pharmacology Branch, DTP, NCI, 2024).
pIC50: −log10 of the molar value.

Test system: 855422-203-R-J1-PDC spheroids with HUVEC/MSC, viability
Assay: Anticancer human tumor 855422-203-R-J1-PDC patient-derived bladder carcinoma cell line growth inhibition [PI3K]
Details: for pIC50: curve of first compound; for viability, T/C: stronger effect = lower value
In short: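 Viability of mixed-cell spheroids was determined after exposure to pairwise combinations, one partner being inavolisib, alpelisib, duvelisib or copanlisib. Highest tested concentration matched clinical Cmax where known and 10 microM where not, descending in half-log steps.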
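Note: agents incubated with spheroids for one week before read-out.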
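Throughout, for viability, T/C: 100% = DMSO vehicle-treated control wells.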

CCN1CCN(Cc2ccc(Nc3ncc(F)c(-c4cc(F)c5nc(C)n(C(C)C)c5c4)n3)nc2)CC1 + CC(Nc1ncnc2nc[nH]c12)c1cc2cccc(Cl)c2c(=O)n1-c1ccccc1
pIC50 (second compound 0.0316 µM): < 6.00 | pIC50 (second compound 0.1 µM): < 6.00 | pIC50 (second compound 0.316 µM): < 6.00 | pIC50 (second compound 1 µM): 6.05 | pIC50 (second compound 3.16 µM): 6.30 | pIC50 (second compound 10 µM): 7.20 | viability, T/C (second compound 0.0316 µM, first compound 0.00316 µM): 113% | viability, T/C (second compound 0.0316 µM, first compound 0.01 µM): 93.7% | viability, T/C (second compound 0.0316 µM, first compound 0.0316 µM): 108% | viability, T/C (second compound 0.0316 µM, first compound 0.1 µM): 88.6% | viability, T/C (second compound 0.0316 µM, first compound 0.316 µM): 76.5% | viability, T/C (second compound 0.0316 µM, first compound 1 µM): 62.2% | viability, T/C (second compound 0.1 µM, first compound 0.00316 µM): 108% | viability, T/C (second compound 0.1 µM, first compound 0.01 µM): 97.8% | viability, T/C (second compound 0.1 µM, first compound 0.0316 µM): 108% | viability, T/C (second compound 0.1 µM, first compound 0.1 µM): 86.5% | viability, T/C (second compound 0.1 µM, first compound 0.316 µM): 83.1% | viability, T/C (second compound 0.1 µM, first compound 1 µM): 62% | viability, T/C (second compound 0.316 µM, first compound 0.00316 µM): 95.2% | viability, T/C (second compound 0.316 µM, first compound 0.01 µM): 112% | viability, T/C (second compound 0.316 µM, first compound 0.0316 µM): 109% | viability, T/C (second compound 0.316 µM, first compound 0.1 µM): 94.4% | viability, T/C (second compound 0.316 µM, first compound 0.316 µM): 68.2% | viability, T/C (second compound 0.316 µM, first compound 1 µM): 53.7% | viability, T/C (second compound 1 µM, first compound 0.00316 µM): 97.5% | viability, T/C (second compound 1 µM, first compound 0.01 µM): 104% | viability, T/C (second compound 1 µM, first compound 0.0316 µM): 105% | viability, T/C (second compound 1 µM, first compound 0.1 µM): 83.1% | viability, T/C (second compound 1 µM, first compound 0.316 µM): 69% | viability, T/C (second compound 1 µM, first compound 1 µM): 47.3% | viability, T/C (second compound 3.16 µM, first compound 0.00316 µM): 98.2% | viability, T/C (second compound 3.16 µM, first compound 0.01 µM): 96.6% | viability, T/C (second compound 3.16 µM, first compound 0.0316 µM): 89.8% | viability, T/C (second compound 3.16 µM, first compound 0.1 µM): 75.7% | viability, T/C (second compound 3.16 µM, first compound 0.316 µM): 51.5% | viability, T/C (second compound 3.16 µM, first compound 1 µM): 46.2% | viability, T/C (second compound 10 µM, first compound 0.00316 µM): 81.9% | viability, T/C (second compound 10 µM, first compound 0.01 µM): 83.2% | viability, T/C (second compound 10 µM, first compound 0.0316 µM): 55.2% | viability, T/C (second compound 10 µM, first compound 0.1 µM): 44.9% | viability, T/C (second compound 10 µM, first compound 0.316 µM): 34.9% | viability, T/C (second compound 10 µM, first compound 1 µM): 25.9%
